{"source": "patent US20240409935A1", "about": "“Atg8ylation coordinates stress granule formation and mTOR inactivation in response to lysosomal damage” (priority 2023, published 2024)", "assay_type_in_all_cases": "cell-based, human", "key": {"[1]": {"tested_on": "G3BP1 puncta (stress granules) in U2OS cells", "assay": "HCM quantification of G3BP1 puncta (stress granule formation) in U2OS cells"}, "[2]": {"tested_on": "DCP1a puncta (P-bodies) in U2OS cells", "assay": "HCM quantification of DCP1a puncta (P-body formation) in U2OS cells", "conditions": "2 mM LLOMe for 30 min"}, "[3]": {"tested_on": "G3BP1 puncta in Huh7 cells", "assay": "HCM quantification of G3BP1 puncta in Huh7 cells", "conditions": "2 mM LLOMe for 30 min"}, "ATF4": {"tested_on": "ATF4", "assay": "Immunoblot analysis of ATF4 in U2OS cells", "conditions": "2 mM LLOMe, indicated time points"}, "mTOR": {"tested_on": "mTOR", "assay": "mTOR/mTORC1 activity by phosphorylation of its substrates (4EBP1 S65, ULK1 S757, S6K1 T389) in U2OS cells", "conditions": "U2OS cells"}, "PKR": {"tested_on": "PKR", "assay": "Immunoblot analysis of PKR (T446) phosphorylation in U2OS cells", "conditions": "2 mM LLOMe for 30 min", "from_the_text": "The level of phosphorylation of eIF2α (S51) is quantified based on three independent experiments. […] Red masks, computer-identified G3BP1 puncta. […] Ctrl, control (untreated cells). Data, means±SEM; HCM: n≥3 (each experiment: 500 valid primary objects/cells per Well, ≥5 Well s/sample). *p<0.05, **p<0.01, ANOVA. See also FIG. 2S."}, "NUFIP2": {"tested_on": "NUFIP2", "assay": "Confocal microscopy of NUFIP2 localisation in Huh7 cells", "conditions": "2 mM LLOMe for 30 min", "description": "Huh7 cells Were treated with 2 mM LLOMe for 30 min and stained for endogenous G3BP1 and NUFIP2. Scale bar, 5 μm. […] The sequence in red (SEQ ID NO: 1), predicted NLS in NUFIP2, was deleted for generating NUFIP2ΔNLS. […] FIG. 4SG show the quantification by HCM of overlaps between mTOR and LAMP2 in Gal8WT^HeLa or Gal8KO^HeLa cells treated with 2 mM LLOMe for 30 min. White masks, algorithm-defined cell boundaries. Yellow masks, computer-identified overlap of mTOR and LAMP2. […] Red masks, computer-identified G3BP1 puncta. Ctrl, control (untreated cells). Data, means±SEM; HCM: n≥3 (each experiment: 500 valid primary objects/cells per Well, ≥5 Well s/sample). †p≥0.05 (not significant), **p<0.01, ANOVA. See also FIG. 3 and FIG. 4."}, "[4]": {"tested_on": "U2OS wildtype (WT) and ΔΔG3BP1/2 cells", "assay": "Propidium iodide (PI) uptake cell death assay (HCM) in U2OS WT and ΔΔG3BP1/2 cells", "conditions": "ΔΔG3BP1/2 cells compared to wildtype U2OS cells, 2 mM LLOMe for 30 min", "description": "Cells Were treated with 2 mM LLOMe for 30 min, and then stained with propidium iodide (PI) (dead cells) and Hoechst-33342 (total cells). White masks, algorithm-defined cell boundaries (primary objects); red masks, computer-identified PI^+ nuclei (target objects). […] Cells Were treated with 2 mM LLOMe for 30 min. […] Cells Were treated with 2 mM in the presence or absence of 10 μg/ml cycloheximide (CHX) for 30 min, and then stained with PI (dead cells) and Hoechst-33342 (total cells). […] Scale bar, 10 μm. […] Cells Were treated with 2 mM LLOMe with or without CHX for 30 min, and then stained using Live/Dead™ stain kit (ThermoFisher). […] (i) HCM images: white masks, algorithm-defined cell boundaries; green masks, computer-identified eIF4G puncta; red masks, computer-identified PI^+ nuclei (target objects); (ii and iii) corresponding HCM quantification. […]\nHow does SG formation affect cell fate during lysosomal damage? […] The inventors quantified the number of SGs using the canonical SG marker polyA RNA (Ivanov et al., 2019) via high-content microscopy (HCM) (FIG. S1B) and verified the depletion of SG formation in ΔΔG3BP1/2 cells when exposed to the lysosome-specific damaging agent L-leucyl-L-leucine methyl ester (LLOMe) (Jia et al., 2022; Tan et al., 2022; Thiele et al., 1990) (FIG. 7SB). […]"}}}
{"smiles": "COC(=O)[C@H](CC(C)C)NC(=O)[C@@H](N)CC(C)C", "note": "[LLOMe, L-leucyl-L-leucine methyl ester]", "values": [{"measurement": "number of SGs upon LLOMe washout", "setting": "[1]; 2 mM LLOMe 30 min followed by 1 h washout", "value": "reduction in the number of SGs"}, {"measurement": "SG formation response (G3BP1 puncta)", "setting": "[1]; agent alone for 30 min (2 mM LLOMe, 200 μM GPN, 400 μg/mL silica, 4 mM LOMe)", "value": "robust SG formation response"}, {"measurement": "P-body formation (DCP1a marker)", "setting": "[2]", "value": "did not induce P-body"}, {"measurement": "SG response (G3BP1 puncta)", "setting": "[3]", "value": "SG response was detected"}, {"measurement": "ATF4 expression", "setting": "ATF4", "value": "increased ATF4 expression over time"}, {"measurement": "ULK1 phosphorylation by mTOR at Ser757", "setting": "mTOR; 2 mM LLOMe for 30 min", "value": "diminished"}, {"measurement": "mTOR activity as measured by 4EBP1 phosphorylation", "setting": "mTOR; 2 mM LLOMe, indicated time points", "value": "inhibition of mTOR"}, {"measurement": "mTORC1 inactivation (4EBP1 S65), dose dependence", "setting": "mTOR; indicated dose of LLOMe for 30 min", "value": "mTORC1 inactivation in a dose-dependent manner"}, {"measurement": "PKR activation assessed by phosphorylation at Thr446", "setting": "PKR", "value": "PKR was activated"}, {"measurement": "NUFIP2 localisation upon lysosomal damage", "setting": "NUFIP2", "value": "NUFIP2 translocated from the nucleus into the cytosol"}, {"measurement": "cell death by PI uptake assay", "setting": "[4]", "value": "significant cell death"}]}
